# Data published in US20120046321A1, “METHODS OF TREATING ATRIAL FIBRILLATION WITH P38 INHIBITOR COMPOUNDS” (INTERMUNE, INC., priority 2005, published 2012).
# Entries after “also recorded” stand apart in the source; their conditions may differ. Like-named read-outs stand apart in the source and are kept apart here.
# Assays:
# TGF-β1 [1] = details: cited from earlier work
# [2] = test system: canines with ventricular tachypacing (VTP)-induced congestive heart failure (CHF); test: Histologic study of atrial fibrosis (Sirius red); assay type: in vivo, canine
# Source text: Briefly, 15 adult mongrel canines (weight 20 to 32 kgs) were divided into 3 groups (n=5 in each group) as follows: Group 1: Normal; Group 2: CHF canines not treated with PFD (or CHF); and Group 3: CHF canines treated with PFD (or CHF+PFD). […] The CHF and CHF+PFD canines underwent placement of a permanent single-chamber pacemaker with the pacing lead positioned in the right ventricular apex followed by radiofrequency catheter ablation of the AV junction to create complete heart block. Canines in the CHF and CHF+PFD groups underwent 3 weeks of VTP at a rate of 220 bpm. Oral PFD (800 mg three times a day) (InterMune, Brisbane, Calif.) was started 2 days prior to the initiation of VTP and was given for the full duration of the pacing period. At the conclusion of the EP study, the animals were euthanized. Atrial tissue samples were fixed in 10% neutral buffered formalin. The samples were processed, embedded in paraffin, and sectioned into 4- to 5-μm-thick sections. The sections were stained in either H&E, Masson's trichrome, or Sirius red. […] To quantify fibrosis, the red pixel content of digitized images (Sirius red-stained) was measured relative to the total tissue area (red and green pixels) with the Adobe Photoshop 7.0 software package. Areas containing blood vessels and perivascular interstitial cells were excluded from fibrosis quantification. […]
# [3] = test system: matrix metalloproteinase (MMP)-9; test: Western blot of atrial tissue; assay type: in vivo, canine; details: active form 88 kDa, CHF+PFD vs CHF
# TNF-α = test: Western blot of atrial tissue; assay type: in vivo, canine; details: 3 groups
# TGF-β1 [4] = test: Western blot of atrial tissue; assay type: in vivo, canine; details: CHF+PFD vs CHF
# [5] = test system: canines with ventricular tachypacing (VTP)-induced congestive heart failure (CHF); test: AF inducibility in open-chest EP study (single extrastimulus and burst pacing); assay type: in vivo, canine
# Source text: Briefly, 15 adult mongrel canines (weight 20 to 32 kgs) were divided into 3 groups (n=5 in each group) as follows: Group 1: Normal; Group 2: CHF canines not treated with PFD (or CHF); and Group 3: CHF canines treated with PFD (or CHF+PFD). […] The CHF and CHF+PFD canines underwent placement of a permanent single-chamber pacemaker with the pacing lead positioned in the right ventricular apex followed by radiofrequency catheter ablation of the AV junction to create complete heart block. Canines in the CHF and CHF+PFD groups underwent 3 weeks of VTP at a rate of 220 bpm. […] Effective refractory periods (ERPs) were measured at 12 atrial sites (6 in LA, 6 in RA) using the single extrastimulus protocol (S1S2) at an 8-beat drive train basic cycle lengths (BCLs) of 200, 300, and 400 ms. During stimulation of the contralateral Bachmann's bundle, conduction velocity (CV) was calculated between pairs of plaque electrodes perpendicular to the activation wavefront with a custom-written software. […] Two measures were derived to quantify conduction heterogeneity: 1) absolute conduction heterogeneity, defined as P95-P5 (P95-5), and 2) conduction heterogeneity index, defined as the absolute conduction heterogeneity normalized by the median phase, or P95-5/P50. […]
structure (smiles),measurement,setting,value
"Cc1ccc(=O)n(-c2ccccc2)c1 [PFD, 5-methyl-1-phenyl-2-(1H)-pyridone]",Expression of TGF-β1,TGF-β1 [1]; animal models of lung fibrosis (Iyer et al.),significantly reduce
same,Expression of TGF-β1,TGF-β1 [1]; hepatic fibrosis (Garcia et al.),significantly reduce
same,Expression of TGF-β1,TGF-β1 [1]; renal tubulointerstitial fibrosis (Shihab et al.),significantly reduce
same,"LA interstitial fibrosis, histologic finding",[2]; Sirius red stained LA sections,significant attenuation
same,Percentage LA fibrosis,"[2]; Sirius red, p<0.002 vs. CHF group (15.4±2.3%), Normals 3.2±1.0%",8.3±3.0%
same,Expression of MMP-9,[3],downregulation; also recorded: reduced
same,Expression of TNF-α,TNF-α,unchanged; also recorded: not markedly different
same,Expression of TGF-β1,TGF-β1 [4],downregulation; also recorded: reduced
same,Mean AF duration,"[5]; CHF+PFD, p<0.009 vs. CHF (1488±698 secs), Normal 16±25 secs",12 ± 13 s
same,Sustained AF,"[5]; open-chest experiments, untreated CHF 4/5, p<0.007",only observed in the untreated CHF canines
